The values that follow come from patent US20230105108A1, “COMPOUNDS FOR THE TREATMENT OF BACTERIAL INFECTIONS AND POTENTIATION OF ANTIBIOTICS” (GEORGIA STATE UNIVERSITY RESEARCH FOUNDATION, INC., priority 2019, published 2023).

The nature of series [1]: Cytotoxicity in H9c2 cells (CCK-8). It is filed as cell-based. The following applies: rat, H9c2 cells; H9c2 cell line. In a few lines: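 H9c2 cells were grown in DMEM with 10% FBS, seeded the day before, and exposed to a range of di-amidine concentrations for 24 h at 37 °C, 5% CO2. Viability was read by CCK-8 after 3 h at 37 °C as absorbance at 450 nm.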
Another series has as its system E. coli (ATCC 25922). Description: MIC determination, sensitization fold and FIC index on E. coli. Format: cell-based. Particulars: for MIC: Escherichia coli, ATCC25922, 24 h; for MIC of AB with MD-124: MD-124 concentration 5 μg/ml. The method, boiled down: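 MICs read by OD600 as >90% growth inhibition after two-fold rifampicin dilutions, 5×10^5 CFU/ml E. coli, 24 h, 37 °C, shaken, cation-adjusted Mueller Hinton II broth.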

The subject of the next series is MRSA (ATCC 33592). Description: MIC determination and sensitization fold on MRSA. Format: cell-based, methicillin-resistant Staphylococcus aureus. The following applies: MRSA, rifampicin. Here is the method:
Bacteria strains: E. coli (ATCC 25922), A. baumannii (ATCC 17978), K. pneumoniae (43816), S. maltophilia (ATCC 31559), S. typhimurium (ATCC 14028), C. werkmanii (ATCC 51114), S. aureus (ATCC 12600) and methicillin-resistant Staphylococcus aureus (MRSA, ATCC 33592) strains were purchased from ATCC. NR698 was provided.
Bacteria culture and MICs determination: Gram-negative bacteria were cultured in Mueller Hinton II cation-adjusted broth. Gram-positive bacteria were cultured in LB broth. Mycobacterium smegmatis was cultured in Middlebrook 7H9 Broth. MICs of antibiotics itself were determined by performing two-fold serial dilutions of antibiotics. MICs of antibiotics in the presence of bacterial sensitizers were determined by performing two-fold serial dilutions of antibiotics with or without a constant concentration of bacterial sensitizers. The MICs tests were performed on 96-well plates with a final volume of 200 μl Mueller Hinton II cation-adjusted broth in each well. Each well was inoculated with 5×10^5 CFU/ml bacteria and was incubated for 24 h at 37° C. with continuous shaking of 200 rpm. The bacterial density was then determined by OD600. Bacterial growth %=OD600 of antibiotic treatment group/OD600 of antibiotic non-treatment group. MICs was determined as the concentrations that inhibit more than 90% of bacteria growth.
Sensitization fold determination and FIC index calculations: Sensitization fold=MIC of antibiotic only/MIC of antibiotic with bacterial sensitizer. […] Since the MICs were determined by performing two-fold serial dilutions of antibiotic, so the sensitization fold can is the times of 2.
Bacteria strains (as indicated in Table 5B) were cultured with rifampicin at various concentrations in the presence or absence of 10 μM of the indicated compound for 20 h at 37° C. The MIC, sensitization, cytotoxicity, and MIC on mycobacteria were tested according to methods described herein. […] The sensitization activities of compounds on MRSA were tested using rifampicin. The sensitization activities of compounds on E. coli were tested using rifampicin.

A further series deals with M. smegmatis. Description: MIC on mycobacteria. Format: cell-based, Mycobacterium smegmatis. Particulars: Mycolicibacterium smegmatis, read-out: MIC on mycobacteria.
The subject of a further series is HEK293 cells. Description: Cytotoxicity on mammalian cells (CCK-8), HEK293. Format: cell-based. Particulars: for CC50: HEK293 cell line, 24 h; for IC50: Homo sapiens, HEK293. Here is the method: (§1) Cytotoxicity test of bacterial sensitizers on mammalian cells. Cell viability was assessed by using Cell Counting Kit-8 (CCK-8, Dojindo, Japan). HEK293 or NIH3T3 cells were seeded in a 96-well plate one day before the experiment to reach 80% confluency. Cells were then incubated with various concentration of bacterial sensitizers at 37° C. with 5% CO2 for 24 h, then 10 μL of CCK-8 solution was added to each well, and the plate was incubated for an additional at 37° C. 2 h with 5% CO2. The optical density at 450 nm was recorded by plate reader; and the results were calculated as a percentage of viability compared with the untreated control.

In the next series the test system is NIH3T3 cells. Description: Cytotoxicity on mammalian cells (CCK-8), NIH3T3. It is filed as cell-based. Particulars: 3T3 cell line; 24 h. How it is done:
as §1

The next series deals with B. subtilis. Description: MIC determination and sensitization fold on B. subtilis. It is filed as cell-based. Particulars: B. subtilis.
The test system of series [2] is A. baumannii (ATCC 17978). Description: MIC, sensitization fold and FIC index on A. baumannii. It is filed as cell-based. Particulars: A. baumannii towards the antibiotic.
In a further series the test system is K. pneumoniae (43816). Description: MIC, sensitization fold and FIC index on K. pneumoniae. It is filed as cell-based. The following applies: for MIC of AB with 5 μg/ml MD-124: K. pneumoniae; for Sensitization fold with 5 μg/ml MD-124: K. pneumoniae towards the antibiotic.
For series [3], the system named is NDM-1 expressing E. coli strain. Description: microbe, parasite or virus in culture. Format: cell-based. The following applies: NDM-1 expressing E. coli towards the antibiotic.
A short description of series [4]: IC50 of Table 7 (cell line not stated). It is filed as cell-based.
Where [5] appears, read: 10 μM compound, rifampicin as the antibiotic (Table 6).
Setting [6] is: E. coli, rifampicin, compound at 10 μM.
Where [7] appears, read: E. coli, rifampicin, compound at 25 μM.
Where [8] appears, read: E. coli towards the antibiotic, MD-124 5 μg/ml.
[9] abbreviates: E. coli, rifampicin, 10 μg/ml bacterial sensitizer.
[10] abbreviates: E. coli (wild type), antibiotic alone, read-out: MIC of AB only.

Where a name gives a salt, the structure may show the parent alone. Read-outs that look alike come from different tables or passages of the source. Marks after values point to notes of the source that are not given here.

A word on the CC50: it is the concentration at which the toxic effect on the cells reaches its halfway point. A higher CC50 goes with better tolerance by the cells. By MIC is commonly meant the least concentration at which growth counts as inhibited. By IC50 is commonly meant the point on the concentration scale where inhibition reaches its midpoint. Lower therefore signals inhibition by little substance. The compound `COc1cc(C(=N)N)ccc1OCc1cc(C)cc(COc2ccc(C(=N)N)cc2OC)c1` [MD-103, 4,4′-(((5-methyl-1,3-phenylene)bis(methylene))bis(oxy))bis(3-methoxybenzimidamide) dihydrochloride] showed a CC50 at 24 h in series [1] of more than 100 µM. Moreover, the Sensitization fold is listed as 2 fold with E. coli (ATCC 25922) (setting [5]); 2-fold at 10 μM in the series with E. coli (ATCC 25922) (setting [6]); 4-fold at 25 μM in the series with E. coli (ATCC 25922) (setting [7]); 2 to 4-fold at 6 μM in the series with MRSA (ATCC 33592) (compound at 6 μM); 8 to 16-fold at 12 μM, in the series on MRSA (ATCC 33592) (compound at 12 μM). The MIC in the series on E. coli (ATCC 25922) was 50 µM; in the series with M. smegmatis, 12.5 µM. For the same compound, the CC50 in the series on HEK293 cells and with NIH3T3 cells was 100 µM throughout. The midpoint of inhibition in the series with HEK293 cells, the IC50, lay at 100 µM.
`Cc1cc(OCc2ccc(C(=N)N)cc2)cc(OCc2ccc(C(=N)N)cc2)c1` [MD-109, 4,4′-(((5-methyl-1,3-phenylene)bis(oxy))bis(methylene))dibenzimidamide dihydrochloride]: the Sensitization fold in the series with E. coli (ATCC 25922) (setting [5]) is on record as 8 fold; with E. coli (ATCC 25922) (setting [6]), 8-fold at 10 μM; in the series with E. coli (ATCC 25922) (setting [7]) it was 32-fold at 25 μM; in the series with B. subtilis (erythromycin, compound at 12 μM) it was 32-fold at 12 μM. The MIC in the series with E. coli (ATCC 25922) amounted to 100 µM; in the series with B. subtilis (Bacillus subtilis, 24 h, compound alone, read-out: MIC), 50 µM. The 50% cytotoxic concentration (CC50) with HEK293 cells and in the series on NIH3T3 cells was 100 µM throughout. This compound came in with an IC50 in the series with HEK293 cells of 100 µM.
On to `O=C(N[C@H](CO)[C@H](O)c1ccc([N+](=O)[O-])cc1)C(Cl)Cl` [Chloramphenicol], for which the Sensitization fold with E. coli (ATCC 25922) (setting [8]) is 8 fold. In addition, the “MIC of AB with MD-124” value with E. coli (ATCC 25922) (E. coli) was determined as 1.6 µg/mL. In the series with E. coli (ATCC 25922) (read-out: MIC of AB only), the MIC turned out to be 12.5 µg/mL. Further, the results for the “Sensitization fold with 5 μg/ml MD-124” value (in series [2]; in the series on K. pneumoniae (43816); in series [3]) were 4 fold, more than 64 fold and 8 fold, respectively. In addition, the “MIC of AB with 5 μg/ml MD-124” value in the series with K. pneumoniae (43816) was found to be 1.6 µg/mL.
For `N=C(N)c1ccc(-c2ccc(-c3ccc(C(=N)N)cc3)[se]2)cc1` [DB1213], the Sensitization fold in the series with E. coli (ATCC 25922) (setting [9]) is 32^a fold. Also, inhibition in [4] was half-maximal at 50 µM (IC50).
In series [1], `N=C(N)c1ccc(OCc2cccc(COc3ccc(C(=N)N)cc3F)c2F)c(F)c1` [DB2558, 1,3-Bis {(4-amidino-2-fluoro)-phenoxymethyl}-2-fluorobenzene dihydrochloride] registered a CC50 at 24 h of 50 µM. In addition, the Sensitization fold is listed as 4-fold at 12 μM in the series with E. coli (ATCC 25922) (E. coli, rifampicin, compound at 12 μM) and 8-fold at 25 μM; with E. coli (ATCC 25922) (setting [7]). Also, the MIC is 50 µM in the series with E. coli (ATCC 25922) (E. coli, compound alone, read-out: MIC) and 6 to 12 µM with M. smegmatis (M. smegmatis). Also, the CC50 in the series with HEK293 cells and in the series on NIH3T3 cells was 100 µM in each case.
Regarding `CCC[C@@H]1C[C@@H](C(=O)N[C@@H]([C@H]2O[C@H](SC)[C@H](O)[C@@H](O)[C@H]2O)[C@H](C)Cl)N(C)C1` [Clindamycin, reference compound], the “MIC of AB with MD-124” value in the series with E. coli (ATCC 25922) (E. coli) is 3.2 µg/mL. Moreover, in the series on E. coli (ATCC 25922) (setting [10]), the MIC was 200 µg/mL. In the series with K. pneumoniae (43816), the “MIC of AB with 5 μg/ml MD-124” value was 25 µg/mL.
For the compound `CC(=O)O[C@H]1C[C@@]2(C)[C@@H](C[C@@H](O)[C@H]3[C@@]4(C)CC[C@@H](O)[C@@H](C)[C@@H]4CC[C@@]32C)/C1=C(\CCC=C(C)C)C(=O)O` [Fusidic acid, reference compound], in the series with E. coli (ATCC 25922) (setting [8]), the Sensitization fold stood at 32 fold. For the same compound, the “MIC of AB with MD-124” value with E. coli (ATCC 25922) (E. coli) turned out to be 6.25 µg/mL. Moreover, in the series with E. coli (ATCC 25922) (setting [10]), the MIC is more than 200 µg/mL. In addition, in series [2], the “Sensitization fold with 5 μg/ml MD-124” value was determined as 128 fold. In addition, in the series on K. pneumoniae (43816), the “MIC of AB with 5 μg/ml MD-124” value was 25 µg/mL and the “Sensitization fold with 5 μg/ml MD-124” value amounted to 4 fold.
In the case of `N=C(N)Nc1ccc(-c2ccc(-c3nc4ccc(NC(=N)N)cc4[nH]3)o2)cc1` [DB704], the Sensitization fold with E. coli (ATCC 25922) (setting [9]) is 16^a fold. This compound gave an IC50 in series [4] of 100 µM.
As to `COc1cc(OCc2ccc(C(=N)N)cc2)cc(OCc2ccc(C(=N)N)cc2)c1` [MD-126, 4,4′-(((5-methoxy-1,3-phenylene)bis(oxy))bis(methylene))dibenzimidamide dihydrochloride], the figures for the Sensitization fold with E. coli (ATCC 25922) (setting [5]) and in the series with E. coli (ATCC 25922) (setting [6]) were 2 fold and 2-fold at 10 μM, respectively. The MIC in the series with E. coli (ATCC 25922) is more than 50 µM. In addition, the CC50 with HEK293 cells and in the series with NIH3T3 cells was 100 µM in each case. The IC50 in the series on HEK293 cells was 100 µM.
As for `N=C(N)N/N=C/c1ccc(-c2ccc(-c3ccc(/C=N/NC(=N)N)cc3)s2)cc1` [DB1079], the Sensitization fold with E. coli (ATCC 25922) (E. coli, rifampicin, 5 μg/ml bacterial sensitizer) is listed as 64^b fold. Also, in [4], inhibition was half-maximal at 12 µM (IC50).
With `Cc1cc(COc2ccc(C(=N)N)cc2F)cc(COc2ccc(C(=N)N)cc2F)c1` [MD-120, 4,4′-(((5-methyl-1,3-phenylene)bis(methylene))bis(oxy))bis(3-fluorobenzimidamide) dihydrochloride], the Sensitization fold in the series with E. coli (ATCC 25922) (setting [5]) is reported as 32 fold; with E. coli (ATCC 25922) (setting [6]), 32-fold at 10 μM; in the series on E. coli (ATCC 25922) (setting [7]), 64-fold at 25 μM; in the series on MRSA (ATCC 33592) (compound at 6 μM), 4-fold at 6 μM. Moreover, in the series on E. coli (ATCC 25922), the MIC is 100 µM. Moreover, the CC50 in the series on HEK293 cells and in the series with NIH3T3 cells was 100 µM in each case. In addition, the IC50 with HEK293 cells came out at 100 µM.
